Legend:
Assay type in all cases: functional
Thanatephorus cucumeris [1] = assay: Fungicidal activity against Thanatephorus cucumeris assessed as rice sheath blight disease control at 31.3 ppm foliar application for 24 hr before inoculation at 26 +- 2 measured after 5 days by preventive manner
Podosphaera fuliginea [2] = assay: Fungicidal activity against Podosphaera fuliginea assessed as cucumber powdery mildew control under greenhouse at 7.8 ppm foliar application 24 hr before inoculation on upper surface of leaf at 23 +/- 2 degC by preventive manner
Thanatephorus cucumeris [3] = assay: Fungicidal activity against Thanatephorus cucumeris assessed as rice sheath blight disease control at 125 ppm foliar application for 24 hr before inoculation at 26 +- 2 measured after 5 days by preventive manner
Thanatephorus cucumeris [4] = assay: Fungicidal activity against Thanatephorus cucumeris assessed as rice sheath blight disease control at 2 ppm foliar application for 24 hr before inoculation at 26 +- 2 measured after 5 days by preventive manner
[5] = tested on: Pseudoperonospora cubensis; assay: Fungicidal activity against Pseudoperonospora cubensis assessed as cucumber downy mildew disease control at 125 ppm foliar application 24 hr before inoculation on upper surface of leaf by preventive manner
Podosphaera fuliginea [6] = assay: Fungicidal activity against Podosphaera fuliginea assessed as cucumber powdery mildew control under greenhouse at 31.3 ppm foliar application 24 hr before inoculation on upper surface of leaf at 23 +/- 2 degC by preventive manner
[7] = tested on: Pseudoperonospora cubensis; assay: Fungicidal activity against Pseudoperonospora cubensis assessed as cucumber downy mildew disease control at 31.3 ppm foliar application 24 hr before inoculation on upper surface of leaf by preventive manner
[8] = tested on: Pseudoperonospora cubensis; assay: Fungicidal activity against Pseudoperonospora cubensis assessed as cucumber downy mildew disease control at 2 ppm foliar application 24 hr before inoculation on upper surface of leaf by preventive manner
Thanatephorus cucumeris [9] = assay: Fungicidal activity against Thanatephorus cucumeris assessed as rice sheath blight disease control at 7.8 ppm foliar application for 24 hr before inoculation at 26 +- 2 measured after 5 days by preventive manner
[10] = tested on: Pseudoperonospora cubensis; assay: Fungicidal activity against Pseudoperonospora cubensis assessed as cucumber downy mildew disease control at 7.8 ppm foliar application 24 hr before inoculation on upper surface of leaf by preventive manner
Podosphaera fuliginea [11] = assay: Fungicidal activity against Podosphaera fuliginea assessed as cucumber powdery mildew control under greenhouse at 125 ppm foliar application 24 hr before inoculation on upper surface of leaf at 23 +/- 2 degC by preventive manner
Podosphaera fuliginea [12] = assay: Fungicidal activity against Podosphaera fuliginea assessed as cucumber powdery mildew control under greenhouse at 2 ppm foliar application 24 hr before inoculation on upper surface of leaf at 23 +/- 2 degC by preventive manner

Structure (SMILES) | Activity (Thanatephorus cucumeris [1]) | Activity (Podosphaera fuliginea [2]) | Activity (Thanatephorus cucumeris [3]) | Activity (Thanatephorus cucumeris [4]) | Activity [5] | Activity (Podosphaera fuliginea [6]) | Activity [7] | Activity [8] | Activity (Thanatephorus cucumeris [9]) | Activity [10] | Activity (Podosphaera fuliginea [11]) | Activity (Podosphaera fuliginea [12])
CNC(=O)/C(=N/OC)c1ccc(C)cc1Oc1ccccc1 | 70% | 70% | 70% | 70% | 70% | 70% | 70% | 70% | 70% | 70% | 70% | 70%
CNC(=O)/C(=N/OC)c1ccccc1COc1ccccc1 | <70% | 70% | <70% | <70% | <70% | 70% | <70% | <70% | <70% | <70% | 70% | 70%
CNC(=O)/C(=N/O)c1ccccc1Oc1ccccc1 | <70% | <70% | <70% | <70% | <70% | <70% | <70% | <70% | <70% | <70% | <70% | <70%
CO/N=C(/C(N)=O)c1ccccc1Oc1ccccc1 | <70% | – | <70% | <70% | <70% | – | <70% | <70% | <70% | <70% | – | –
CO/N=C(/C(=O)N(C)C)c1ccccc1Oc1ccccc1 | 70% | 70% | 70% | 70% | <70% | 70% | <70% | <70% | 70% | <70% | 70% | 70%
CCNC(=O)/C(=N/OC)c1ccccc1Oc1ccccc1 | 70% | 70% | 70% | 70% | <70% | 70% | <70% | <70% | 70% | <70% | 70% | 70%
CNC(=O)/C(=N/OC)c1cccc(Oc2ccccc2)c1 | 70% | 70% | 70% | 70% | <70% | 70% | <70% | <70% | 70% | <70% | 70% | 70%
CNC(=O)/C(=N/OC)c1ccc(Oc2ccccc2)cc1 | <70% | 70% | <70% | <70% | <70% | 70% | <70% | <70% | <70% | <70% | 70% | 70%
CNC(=O)/C(=N/OC)c1ccccc1OCc1ccccc1 | 70% | 70% | 70% | 70% | 70% | 70% | 70% | 70% | 70% | 70% | 70% | 70%
CNC(=O)/C(=N/OC)c1ccccc1Sc1ccccc1 | 70% | 70% | 70% | 70% | 70% | 70% | 70% | 70% | 70% | 70% | 70% | 70%
CNC(=O)/C(=N/OC)c1ccccc1SCc1ccccc1 | 70% | 70% | 70% | 70% | 70% | 70% | 70% | 70% | 70% | 70% | 70% | 70%
CNC(=O)/C(=N/OC)c1ccccc1/C=C\c1ccccc1 | 70% | 70% | 70% | 70% | 70% | 70% | 70% | 70% | 70% | 70% | 70% | 70%
CNC(=O)/C(=N/OC)c1ccccc1/C=C/c1ccccc1 | <70% | 70% | <70% | <70% | 70% | 70% | 70% | 70% | <70% | 70% | 70% | 70%
CNC(=O)/C(=N/OC)c1ccccc1CCc1ccccc1 | <70% | 70% | <70% | <70% | <70% | 70% | <70% | <70% | <70% | <70% | 70% | 70%
CNC(=O)/C(=N/OC)c1ccccc1C(=O)Oc1ccccc1 | <70% | 70% | <70% | <70% | <70% | 70% | <70% | <70% | <70% | <70% | 70% | 70%
CNC(=O)/C(=N/OC)c1ccccc1C(=O)c1ccccc1 | <70% | <70% | <70% | <70% | <70% | <70% | <70% | <70% | <70% | <70% | <70% | <70%
CNC(=O)/C(=N/OC)c1ccccc1NCc1ccccc1 | <70% | <70% | <70% | <70% | <70% | <70% | <70% | <70% | <70% | <70% | <70% | <70%
CNC(=O)/C(=N/OC)c1cc(F)ccc1Oc1ccccc1 | 70% | 70% | 70% | 70% | 70% | 70% | 70% | 70% | 70% | 70% | 70% | 70%
CNC(=O)/C(=N/OC)c1cc(C)ccc1Oc1ccccc1 | 70% | 70% | 70% | 70% | 70% | 70% | 70% | 70% | 70% | 70% | 70% | 70%
CNC(=O)/C(=N/OC)c1cc(OC)ccc1Oc1ccccc1 | 70% | 70% | 70% | 70% | 70% | 70% | 70% | 70% | 70% | 70% | 70% | 70%
CNC(=O)/C(=N/OC)c1cc([N+](=O)[O-])ccc1Oc1ccccc1 | <70% | <70% | <70% | <70% | <70% | <70% | <70% | <70% | <70% | <70% | <70% | <70%
CNC(=O)/C(=N/OC)c1c(OC)cccc1Oc1ccccc1 | <70% | <70% | <70% | <70% | <70% | <70% | <70% | <70% | <70% | <70% | <70% | <70%
